Measurements from patent US20060045953A1 (priority 2004, published 2006).

Molecular target: T1, hT1R2/hT1R3 sweet receptor (Homo sapiens, UniProt Q7RTX0+Q8TE23)
T1 construct: expressed in transfected cells; host or cells: HEK293 derivative stably expressing Gα15, clone S-9
T1 sequence (Q8TE23 20-839): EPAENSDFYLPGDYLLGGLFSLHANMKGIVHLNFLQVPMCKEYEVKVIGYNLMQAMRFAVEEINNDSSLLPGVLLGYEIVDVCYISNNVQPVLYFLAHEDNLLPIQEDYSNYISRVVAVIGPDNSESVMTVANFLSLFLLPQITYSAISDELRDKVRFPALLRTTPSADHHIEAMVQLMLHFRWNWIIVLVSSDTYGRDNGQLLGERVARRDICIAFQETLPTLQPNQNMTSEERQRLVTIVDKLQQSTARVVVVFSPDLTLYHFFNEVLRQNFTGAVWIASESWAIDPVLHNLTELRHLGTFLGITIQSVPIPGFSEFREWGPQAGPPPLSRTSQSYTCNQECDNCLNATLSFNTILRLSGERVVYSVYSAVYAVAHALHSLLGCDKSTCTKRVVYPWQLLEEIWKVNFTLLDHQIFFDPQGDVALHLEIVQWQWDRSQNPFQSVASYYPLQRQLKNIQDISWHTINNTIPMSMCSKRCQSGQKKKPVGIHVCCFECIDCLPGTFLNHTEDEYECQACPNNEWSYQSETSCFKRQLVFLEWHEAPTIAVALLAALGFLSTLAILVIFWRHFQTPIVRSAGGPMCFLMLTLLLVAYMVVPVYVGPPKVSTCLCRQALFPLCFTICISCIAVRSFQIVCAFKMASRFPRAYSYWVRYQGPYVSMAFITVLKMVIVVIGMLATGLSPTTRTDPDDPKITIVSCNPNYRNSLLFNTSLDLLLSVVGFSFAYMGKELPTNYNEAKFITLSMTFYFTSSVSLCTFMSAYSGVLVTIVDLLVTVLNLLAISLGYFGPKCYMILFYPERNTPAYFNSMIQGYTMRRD
T1 sequence (Q7RTX0 21-852): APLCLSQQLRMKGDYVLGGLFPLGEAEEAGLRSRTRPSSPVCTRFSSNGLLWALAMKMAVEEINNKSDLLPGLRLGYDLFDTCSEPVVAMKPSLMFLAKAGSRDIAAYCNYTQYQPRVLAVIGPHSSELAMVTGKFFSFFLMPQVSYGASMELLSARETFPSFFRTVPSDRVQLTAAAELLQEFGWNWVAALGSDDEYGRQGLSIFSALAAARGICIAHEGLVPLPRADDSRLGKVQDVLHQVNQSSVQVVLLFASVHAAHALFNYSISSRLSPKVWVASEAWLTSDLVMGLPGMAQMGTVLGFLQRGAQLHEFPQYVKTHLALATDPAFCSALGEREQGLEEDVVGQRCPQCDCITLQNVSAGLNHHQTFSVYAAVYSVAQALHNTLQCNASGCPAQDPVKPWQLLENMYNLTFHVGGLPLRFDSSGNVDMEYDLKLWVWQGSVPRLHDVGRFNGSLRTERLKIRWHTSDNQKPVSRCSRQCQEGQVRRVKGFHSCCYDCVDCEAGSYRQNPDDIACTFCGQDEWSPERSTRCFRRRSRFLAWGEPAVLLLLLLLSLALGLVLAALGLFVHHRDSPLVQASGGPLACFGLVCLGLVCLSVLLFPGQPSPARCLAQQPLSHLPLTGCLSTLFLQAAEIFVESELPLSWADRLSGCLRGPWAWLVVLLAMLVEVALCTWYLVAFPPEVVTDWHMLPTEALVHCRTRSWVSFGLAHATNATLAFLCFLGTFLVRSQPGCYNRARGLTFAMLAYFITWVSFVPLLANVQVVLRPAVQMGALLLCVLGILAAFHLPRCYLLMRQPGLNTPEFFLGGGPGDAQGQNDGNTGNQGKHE
Assay: In vitro hT1R2/hT1R3 sweet taste receptor activation assay (FLIPR, dose response)
Assay type: cell-based
Settings: Table E, Sweet Enhancer Amides; read-out: Sweet EC50
Description: Activity was determined using an automated fluorometric imaging assay on a FLIPR instrument (Fluorometric Intensity Plate Reader, Molecular Devices, Sunnyvale, Calif.) (designated FLIPR assay). […] S-9 cells were grown for 24 hours at 37° C. S-9 cells were then loaded with the calcium dye Fluo-3AM (Molecular Probes, Eugene, Oreg.), 4 µM in a phosphate buffered saline (D-PBS) (Invitrogen, Carlsbad, Calif.), for 1 hour at room temperature. After replacement with 25 µl D-PBS, stimulation was performed in the FLIPR instrument and at room temperature by the addition of 25 µl D-PBS supplemented with different stimuli at concentrations corresponding to twice the desired final level.
For dose-responses analysis, stimuli were presented in duplicates at 10 different concentrations ranging from 60 nM to 30 µM. Activities were normalized to the response obtained with 400 mM D-fructose, a concentration that elicits maximum receptor response. EC50s were determined using a non-linear regression algorithm (using a Senomyx, Inc. software), where the Hill slope, bottom asymptotes and top asymptotes were allow to vary.

EC50 | SMILES
0.19 µM | CC1CCc2ccccc2C1NC(=O)c1cccc(Cl)c1O (stereo not drawn) [Example E1, 3-chloro-2-hydroxy-N-(2-methyl-1,2,3,4-tetrahydronaphthalen-1-yl)benzamide]
0.65 µM | O=C(N[C@@H]1CCCc2ccccc21)c1cccc(Cl)c1O [Example E2, (R)-3-chloro-2-hydroxy-N-(1,2,3,4-tetrahydronaphthalen-1-yl)benzamide]
1.03 µM | O=C(NC1CCCc2c(O)cccc21)c1cccc(Cl)c1O (stereo not drawn) [Example E3, 3-chloro-2-hydroxy-N-(5-hydroxy-1,2,3,4-tetrahydronaphthalen-1-yl)benzamide]
1.61 µM | CC1CCC(NC(=O)c2cccc(Cl)c2O)c2ccccc21 (stereo not drawn) [Example E4, 3-chloro-2-hydroxy-N-(4-methyl-1,2,3,4-tetrahydronaphthalen-1-yl)benzamide]
1.61 µM | COc1ccc2c(c1)CCCC2NC(=O)c1cccc(Cl)c1O (stereo not drawn) [Example E5, 3-chloro-2-hydroxy-N-(6-methoxy-1,2,3,4-tetrahydronaphthalen-1-yl)benzamide]
1.48 µM | Cc1nocc1C(=O)NC1c2ccccc2CCC1C (stereo not drawn) [Example E6, 3-methyl-N-(2-methyl-1,2,3,4-tetrahydronaphthalen-1-yl)isoxazole-4-carboxamide]
1.81 µM | O=C(NC1CCCc2ccccc21)c1cccc(Cl)c1O (stereo not drawn) [Example E7, 3-chloro-2-hydroxy-N-(1,2,3,4-tetrahydronaphthalen-1-yl)benzamide]
1.98 µM | CC1CCc2ccccc2C1NC(=O)c1cccc(O)c1O (stereo not drawn) [Example E8, 2,3-dihydroxy-N-(2-methyl-1,2,3,4-tetrahydronaphthalen-1-yl)benzamide]
2.36 µM | CC1CCc2ccccc2C1NC(=O)c1ccccc1O (stereo not drawn) [Example E9, 2-hydroxy-N-(2-methyl-1,2,3,4-tetrahydronaphthalen-1-yl)benzamide]
2.44 µM | COc1cccc2c1CCCC2NC(=O)c1cccc(O)c1O (stereo not drawn) [Example E10, 2,3-dihydroxy-N-(5-methaxy-1,2,3,4-tetrahydronaphthalen-1-yl)benzamide]
2.46 µM | Cc1nocc1C(=O)NC1CCC(C)c2ccccc21 (stereo not drawn) [Example E11, 3-methyl-N-(4-methyl-1,2,3,4-tetrahydronaphthalen-1-yl)isoxazole-4-carboxamide]
2.85 µM | COc1cccc2c1CCCC2NC(=O)c1conc1C (stereo not drawn) [Example E12, N-(5-methoxy-1,2,3,4-tetrahydronaphthalen-1-yl)-3-methylisoxazole-4-carboxamide]
2.91 µM | Cc1c(Cl)cccc1C(=O)N[C@H]1CCCc2ccccc21 [Example E13, (S)-3-chloro-2-methyl-N-(1,2,3,4-tetrahydronaphthalen-1-yl)benzamide]
2.91 µM | Cc1cccc(C)c1C(=O)N[C@H]1CCCc2ccccc21 [Example E14, (S)-2,6-dimethyl-N-(1,2,3,4-tetrahydronaphthalen-1-yl)benzamide]
3.02 µM | O=C(NC1CCCc2ccccc21)c1c(Cl)cccc1Cl (stereo not drawn) [Example E15, 2,6-dichloro-N-(1,2,3,4-tetrahydronaphthalen-1-yl)benzamide]
3.04 µM | COc1c(Cl)ccc(Cl)c1C(=O)NC1CCCc2ccccc21 (stereo not drawn) [Example E16, 3,6-dichloro-2-methoxy-N-(1,2,3,4-tetrahydronaphthalen-1-yl)benzamide]
3.13 µM | O=C(N[C@@H]1CCCc2ccccc21)c1cccc(O)c1O [Example E17, (R)-2,3-dihydroxy-N-(1,2,3,4-tetrahydronaphthalen-1-yl)benzamide]
3.57 µM | Cc1c(F)cccc1C(=O)N[C@H]1CCCc2ccccc21 [Example E19, (S)-3-fluoro-2-methyl-N-(1,2,3,4-tetrahydronaphthalen-1-yl)benzamide]
4.13 µM | COc1ccc(Cl)c(OC)c1C(=O)N[C@H]1CCCc2ccccc21 [Example E20, (S)-3-chloro-2,6-dimethoxy-N-(1,2,3,4-tetrahydronaphthalen-1-yl)benzamide]
4.19 µM | O=C(N[C@@H]1CCCc2ccccc21)c1cncc(Br)c1 [Example E21, (R)-5-bromo-N-(1,2,3,4-tetrahydronaphthalen-1-yl)nicotinamide]
4.52 µM | O=C(N[C@@H]1CCCc2ccccc21)c1cccc(Cl)c1 [Example E22, (R)-3-chloro-N-(1,2,3,4-tetrahydronaphthalen-1-yl)benzamide]

Same assay, conditions: read-out: EC50 for activation of a hT1R2/hT1R3 sweet receptor expressed in an HEK293 cell line

EC50 | SMILES
0.14 µM | C=CCc1c(F)c(F)c(C(=O)N[C@@H](C)C(C)C)c(F)c1F [Example 191, (S)-4-allyl-2,3,5,6-tetrafluoro-N-(3-methylbutan-2-yl)benzamide]
0.14 µM | CCCc1c(F)c(F)c(C(=O)N[C@@H](C)C(C)C)c(F)c1F [Example 192, (S)-2,3,5,6-tetrafluoro-N-(3-methylbutan-2-yl)-4-propylbenzamide]
0.02 µM | Cc1cccc2c1CN(C(=O)Nc1c(F)cc(Br)cc1F)C2 [Example 193, N-(4-bromo-2,6-difluorophenyl)-4-methylisoindoline-2-carboxamide]
0.06 µM | Cc1cc(F)c(NC(=O)N2Cc3cccc(C)c3C2)c(F)c1 [Example 194, N-(2,6-difluoro-4-methylphenyl)-4-methylisoindoline-2-carboxamide]
0.067 µM | COc1cc(F)c(NC(=O)N2Cc3cccc(C)c3C2)c(F)c1 [Example 195, N-(2,6-difluoro-4-methoxyphenyl)-4-methylisoindoline-2-carboxamide]
1.07 µM | O=C(Nc1c(F)cc(Br)cc1F)N1Cc2cccc([N+](=O)[O-])c2C1 [Example 196, N-(4-Bromo-2,6-difluorophenyl)-4-nitroisoindoline-2-carboxamide]
0.52 µM | Cc1ccc2c(c1)CN(C(=O)Nc1c(F)cc(Br)cc1F)C2 [Example 197, N-(4-Bromo-2,6-difluorophenyl)-5-methylisoindoline-2-carboxamide]
0.42 µM | O=C(Nc1c(F)cc(Br)cc1F)N1Cc2ccc(Br)cc2C1 [Example 198, 5-Bromo-N-(4-bromo-2,6-difluorophenyl)isoindoline-2-carboxamide]
0.95 µM | Cc1cccc2c1CN(C(=O)Nc1ccc3c(c1)OCO3)C2 [Example 199, N-(3,4-(methylenedioxy)phenyl)-4-methylisoindoline-2-carboxamide]
1.02 µM | CSc1cc(C)c(C(=O)N[C@H](C)C(C)(C)C)c(C)c1 [Example 200, (R)-N-(3,3-dimethylbutan-2-yl)-2,6-dimethyl-4-(methylthio)benzamide]
0.69 µM | CCCOc1cc(C)c(C(=O)NC2CCCCC2C)c(C)c1 (stereo not drawn) [Example 201, 2,6-dimethyl-N-(2-methylcyclohexyl)-4-propoxybenzamide]
1.02 µM | Cc1cc(-c2ccco2)cc(C)c1C(=O)NC1CCCCC1C (stereo not drawn) [Example 202, 4-(furan-2-yl)-2,6-dimethyl-N-(2-methylcyclohexyl)benzamide]
